According to EP4129319A1, “PORE-FORMING ANTIMICROBIAL PEPTIDES” (priority 2021, dated 2023):
Ends that are not written are not given here.

How the values were obtained:
[1] = PBS buffer
Procedure: After storing at -20 °C, the peptides were dissolved in phosphate-buffered saline (PBS). […] The pH of all the buffers was adjusted to physiological value 7.4.

Calcein leakage assay = format: biochemical; settings: calcein leakage, POPC:POPG (1:1 mol/mol) LUVs
Procedure: Chemicals. […] (Prague, Czech Republic), and Caslo ApS (Kongens Lyngby, Denmark). […] The bacterial stock was stored at -80°C.
Calcein leakage assay. Pore-forming activity of the peptides was tested by their ability to leak the self-quenching fluorescent dye calcein entrapped within POPC:POPG (1:1 mol/mol) large unilamellar vesicles (LUVs). After mixing DiD to the lipid mixture (in the ratio 1:500 mol/mol), a thin lipid film was created by evaporating of the chloroform, traces of which were removed by desiccating overnight. The lipid film was then dissolved in calcein buffer, followed by vigorous vortexing. The lipid suspension was subsequently subjected to 10 freeze-thaw cycles. To obtain uniform LUVs, the sample was passed 50 times back and forth through an extruder stacked with 100 nm pore size polycarbonate membrane filter. Afterwards, the untrapped calcein was removed on a HiTrap Desalting Column (with Sephadex G-25 Superfine resin) by washing with PBS buffer. The concentration of the lipid suspension was then adjusted to 0.02 mM. The concentration of the peptide solution was 0.1 mM. The inventors monitored the peptide-induced release of calcein from LUVs by the increase in fluorescence intensity after adding increasing amounts of peptides to the LUVs under constant stirring at 25 °C. The investigated range of peptide/lipid molecular ratio was from 1:100 to 1:10. The excitation and emission wavelengths were set to 495 nm and 520 nm, respectively. Maximum fluorescence intensity was obtained by disrupting all the vesicles in the end by adding 10% Triton X-100. Experiments were performed in triplicates with independently prepared lipid vesicles.

## KKKKLKKILKKLFQFINQLDNQLQDIAQNA-NH2 [KDFA2i+7-npNH2]
[1]
  aggregation / solubilization problem (in words): peptide aggregation
Calcein leakage assay; peptide-to-lipid ratio 1:10 (mol/mol)
  Extent of leakage (in percentage) at increasing peptide-to-lipid ratio (mol/mol) 1:10: Aggregated peptides and no leakage
Calcein leakage assay; peptide-to-lipid ratio 1:20 (mol/mol)
  Extent of leakage (in percentage) at increasing peptide-to-lipid ratio (mol/mol) 1:20: Aggregated peptides and no leakage
Calcein leakage assay; peptide-to-lipid ratio 1:50 (mol/mol)
  Extent of leakage (in percentage) at increasing peptide-to-lipid ratio (mol/mol) 1:50: Aggregated peptides and no leakage
Calcein leakage assay; peptide-to-lipid ratio 1:100 (mol/mol)
  Extent of leakage (in percentage) at increasing peptide-to-lipid ratio (mol/mol) 1:100: Aggregated peptides and no leakage
